Test results reported in publication PMC11802738 (Nature Communications, 2025).

What was measured:
[1] = target: T1, RgNanH (GRAB-Sia3 = RgNanH D282A) (Mediterraneibacter gnavus, UniProt A7B557, D282A); test: isothermal titration calorimetry; format: binding; settings: PBS; 50 μM protein in cell, 1 mM ligand in syringe; monomeric GRAB-Sia3
T1 sequence (A7B557 243-723 D282A): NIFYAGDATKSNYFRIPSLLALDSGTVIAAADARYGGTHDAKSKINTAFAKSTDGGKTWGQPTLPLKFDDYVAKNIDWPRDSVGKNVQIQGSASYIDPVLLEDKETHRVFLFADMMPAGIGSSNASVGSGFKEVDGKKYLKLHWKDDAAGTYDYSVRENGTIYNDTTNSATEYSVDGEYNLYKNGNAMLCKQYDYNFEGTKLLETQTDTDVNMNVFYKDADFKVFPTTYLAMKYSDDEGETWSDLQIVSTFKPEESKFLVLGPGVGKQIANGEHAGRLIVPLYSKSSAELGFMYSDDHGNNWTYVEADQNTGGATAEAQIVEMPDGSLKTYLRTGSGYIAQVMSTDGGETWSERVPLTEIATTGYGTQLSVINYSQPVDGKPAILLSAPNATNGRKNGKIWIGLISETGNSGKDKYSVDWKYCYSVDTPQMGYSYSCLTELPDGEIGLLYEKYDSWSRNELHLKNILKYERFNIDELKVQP

[2] = target: SpNanA (GRAB-Sia = SpNanA D372N) (Streptococcus pneumoniae, UniProt P62576, D372N); settings: PBS; 50 μM protein in cell, 1 mM ligand in syringe; monomeric GRAB-Sia

Compound	Kd [1] [µM]	Kd [2] [µM]
CC(=O)N[C@H]1[C@H]([C@H](O)[C@H](O)CO)O[C@@](O[C@H]2[C@@H](O)[C@@H](CO)O[C@@H](O[C@H]3[C@H](O)[C@@H](O)C(O)O[C@@H]3CO)[C@@H]2O)(C(=O)O)C[C@@H]1O (stereo partly drawn) [3′SL]	7.15	17.8
CC(=O)N[C@H]1[C@H]([C@H](O)[C@H](O)CO)O[C@@](OC[C@H]2O[C@@H](O[C@H]3[C@H](O)[C@@H](O)C(O)O[C@@H]3CO)[C@H](O)[C@@H](O)[C@H]2O)(C(=O)O)C[C@@H]1O (stereo partly drawn) [6′SL]	–	19.1
